How the values were obtained:
Experiment in all cases: relative viability (nuclei count vs DMSO), 5 days (fraction); higher = more cells survive
NCI-H1944 = system: NCI-H1944
Outline: (§1)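 Lung cancer cell lines were pin-tool dosed in 1536-well plates on the day after seeding, with either a lone drug or a fixed anchor-drug dose plus five library-drug doses (not always all listed) in √10 steps. Nuclei were counted on 4× images after 5 days. Relative viability is the ratio of treated-well to vehicle-well nuclei counts, with each value a median of duplicate plates.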

NCI-H1975 = system: NCI-H1975
Outline: as §1

NCI-H1993 = system: NCI-H1993
Outline: as §1

NCI-H2228 = system: NCI-H2228
Outline: as §1

NCI-H3122 = system: NCI-H3122
Outline: as §1

NCI-H520 = system: NCI-H520
Outline: as §1

NCI-H647 = system: NCI-H647
Outline: as §1

NCI-H661 = system: NCI-H661
Outline: as §1

NCI-H838 = system: NCI-H838
Outline: as §1

PC-14 = system: PC-14
Outline: as §1

PC-3 [JPC-3] = system: PC-3 [JPC-3]
Outline: as §1

SK-LU-1 = system: SK-LU-1
Outline: as §1

`O=C(O)CCCCC(CCSCc1ccccc1)SCc1ccccc1` (configuration not stated) [CPI-613] + N=C(N)NC(=N)NCCc1ccccc1 [Phenformin] (partner 250 µM) showed a relative viability (NCI-H1944; first compound 158.11 µM) of 0.14, a relative viability (NCI-H1944; first compound 500 µM) of 0.0441 and a relative viability (NCI-H1975; first compound 5 µM) of 0.397. The relative viability (NCI-H1975; first compound 15.81 µM) was 0.404, the relative viability (NCI-H1975; first compound 50 µM) was 0.388 and the relative viability (NCI-H1975; first compound 158.11 µM) was 0.291. The relative viability (NCI-H1975; first compound 500 µM) was 0.0692, the relative viability (NCI-H1993; first compound 5 µM) was 0.492 and the relative viability (NCI-H1993; first compound 15.81 µM) was 0.532. It also gave a relative viability (NCI-H1993; first compound 50 µM) of 0.492, a relative viability (NCI-H1993; first compound 158.11 µM) of 0.473 and a relative viability (NCI-H1993; first compound 500 µM) of 0.42. For the same compound, the relative viability (NCI-H2228; first compound 5 µM) was 0.344, the relative viability (NCI-H2228; first compound 15.81 µM) was 0.33 and the relative viability (NCI-H2228; first compound 50 µM) was 0.222. It also gave a relative viability (NCI-H2228; first compound 158.11 µM) of 0.208, a relative viability (NCI-H2228; first compound 500 µM) of 0.0339 and a relative viability (NCI-H3122; first compound 5 µM) of 0.387. The relative viability (NCI-H3122; first compound 15.81 µM) was 0.364, the relative viability (NCI-H3122; first compound 50 µM) was 0.339 and the relative viability (NCI-H3122; first compound 158.11 µM) was 0.17. The relative viability (NCI-H3122; first compound 500 µM) was 0.0221, the relative viability (NCI-H520; first compound 5 µM) was 0.667 and the relative viability (NCI-H520; first compound 15.81 µM) was 0.433. For the same compound, the relative viability (NCI-H520; first compound 50 µM) was 0.634, the relative viability (NCI-H520; first compound 158.11 µM) was 0.446 and the relative viability (NCI-H520; first compound 500 µM) was 0.35. It also gave a relative viability (NCI-H647; first compound 5 µM) of 0.575, a relative viability (NCI-H647; first compound 15.81 µM) of 0.408 and a relative viability (NCI-H647; first compound 50 µM) of 0.501. It also gave a relative viability (NCI-H647; first compound 158.11 µM) of 0.108, a relative viability (NCI-H647; first compound 500 µM) of 0.0098 and a relative viability (NCI-H661; first compound 5 µM) of 0.291. The relative viability (NCI-H661; first compound 15.81 µM) was 0.235, the relative viability (NCI-H661; first compound 50 µM) was 0.304 and the relative viability (NCI-H661; first compound 158.11 µM) was 0.214. For the same compound, the relative viability (NCI-H661; first compound 500 µM) was 0.113, the relative viability (NCI-H838; first compound 5 µM) was 0.586 and the relative viability (NCI-H838; first compound 15.81 µM) was 0.481. It also gave a relative viability (NCI-H838; first compound 50 µM) of 0.558, a relative viability (NCI-H838; first compound 158.11 µM) of 0.261 and a relative viability (NCI-H838; first compound 500 µM) of 0.0688. For the same compound, the relative viability (PC-14; first compound 5 µM) was 0.463, the relative viability (PC-14; first compound 15.81 µM) was 0.458 and the relative viability (PC-14; first compound 50 µM) was 0.567. It also gave a relative viability (PC-14; first compound 158.11 µM) of 0.386, a relative viability (PC-14; first compound 500 µM) of 0.207 and a relative viability (PC-3 [JPC-3]; first compound 5 µM) of 0.474. For the same compound, the relative viability (PC-3 [JPC-3]; first compound 15.81 µM) was 0.495, the relative viability (PC-3 [JPC-3]; first compound 50 µM) was 0.494 and the relative viability (PC-3 [JPC-3]; first compound 158.11 µM) was 0.465. For the same compound, the relative viability (PC-3 [JPC-3]; first compound 500 µM) was 0.0769, the relative viability (SK-LU-1; first compound 5 µM) was 0.547 and the relative viability (SK-LU-1; first compound 15.81 µM) was 0.479. For the same compound, the relative viability (SK-LU-1; first compound 50 µM) was 0.642, the relative viability (SK-LU-1; first compound 158.11 µM) was 0.248 and the relative viability (SK-LU-1; first compound 500 µM) was 0.0581.

Reference: the supplement of paper PMC10307832
